What was measured:
[1] = Cyclic voltammetry in Pt/Li/Li three-electrode cell; format: physicochemical; conditions: for Potential: 10 mM in 1.2 M LiPF6 in EC/EMC (3:7 by weight), Pt/Li/Li; for redox properties from cyclic voltammogram: lithium electrolyte and concentration differ per compound; for performance compared with quinoxaline: 0.005 M in Electrolyte B
Method: The upper and lower redox potentials shown in FIG. 5 were determined by a combination of average peak potential and graphical analysis of the cyclic voltammograms over a range of scan rates (5, 10, 20, 50, 100, and 200 mV/s).
Cyclic voltammetry (CV) were performed in a custom-made airtight three-electrode electrochemical cell with a 2-mm diameter platinum disk working electrode and lithium metal counter and reference electrodes. Prior to use, the platinum disk electrode was dipped in nitric acid solution (about 50 vol % HNO3, Ricca Chemical Company) and then polished on a MICROCLOTH® pad with 0.3 μm and 0.05 μm alumina (Buehler Ltd., Lake Bluff, Ill.). After polishing, the electrode was thoroughly rinsed with distilled water and dried with house nitrogen. The electrochemical cell was then assembled in an Argon-filled glove box and transferred out to perform measurements. […] All evaluations were performed in triplicate at room temperature.
The redox potential of DBBB was calculated by averaging the oxidation and reduction peak potentials in the two different electrolytes at various scan rates (5, 10, 20, 50, 100, and 200 mV/s). […] The shift in the peak potential with the scan rate may be caused by the limited charge-transfer kinetics of the active species (DBBB) and the uncompensated resistance, which is commonly called the “iR drop”. Because the polarization from the kinetic effect and iR drop is triggered by the current flowing through the electrochemical cell, the average peak potential [(Epa+Epc)/2] gives a good estimation of the redox potential of the reversible electroactive species. […] Evaluations were performed in triplicate in a Pt/Li/Li cell at room temperature.

[2] = Intrinsic capacity and energy density (Table 1); format: physicochemical
Excerpt: Table 1 provides a summary of the useful redox properties of these compounds.

[3] = Cyclic voltammetry in Pt/Na/Na cell with sodium electrolyte; format: physicochemical; conditions: NaPF6 in propylene carbonate
Method: The redox materials described herein also can be utilized with sodium-based electrolyte salts. For example, FIG. 22(a) provides a cyclic voltammogram obtained with about 17 mM DBBB in 0.247 M Na PF6 in propylene carbonate, in a Pt/Na/Na cell at scan rates of 5, 20, 50, and 100 mV/s. FIG. 22(b) provides a cyclic voltammogram obtained with about 13 mM 2,3,6-trimethylquinoxaline in 0.217 M NaPF6 in propylene carbonate at a 20 mV/s scan rate.

[4] = Solubility in solvent or electrolyte; format: physicochemical
[5] = Diffusion coefficient from Randle-Sevcik measurements; format: physicochemical
Method: 2,5-Di-tert-butyl-1,4-bis(2-methoxyethoxy)benzene (“DBBB”) is a redox material developed at Argonne National Laboratory for overcharge protection in Li-ion batteries. […] The diffusion coefficient of DBBB was determined to be about 1.30×10^−6 cm^2/s in the battery electrolyte based on Randle-Sevcik measurements. However, Electrolyte A is non-ideal for flow battery applications due to high volatility, extreme moisture sensitivity, and high materials cost. Thus, an electrolyte consisting of 0.2 M LiBF4 in propylene carbonate (“Electrolyte B”) was also investigated as a more robust and lower cost alternative. FIG. 2b show iR-corrected cyclic voltammograms of 0.005 M DBBB in Electrolyte A and in Electrolyte B at a scan rate of 20 mV/s. […] Thus, 2,5-di-tert-butyl-1,4-dialkoxybenzene compounds, such as DBBB, are active in different electrolyte systems, and the performance of these materials can be tailored by the choice of the electrolyte composition.

[6] = Li-ion cell, 100% overcharge; cited from earlier work

Structure (SMILES): CCOc1c(F)c(F)c(OCC)c(F)c1F [TFDEB, 1,2,4,5-tetrafluoro-3,6-diethoxybenzene]
- Potential [1]: 4.63 V vs. Li/Li
- Energy Density [2]: 520.9 Wh/Kg
- Intrinsic Capacity [2]: 112.5 mAh/g

Structure (SMILES): O=C(c1ccccc1)c1ccccc1 [benzophenone]
- redox properties from cyclic voltammogram ([1]; Pt/Li/Li cell): suitable redox properties

Structure (SMILES): Cc1cc2nc(-c3ccccn3)c(-c3ccccn3)nc2cc1C [6,7-dimethyl-2,3-di(2-pyridyl)quinoxaline]
- lower redox potential ([1]; Electrolyte B, Pt/Li/Li cell, average peak potential method): about 2.6 V

Structure (SMILES): CC(=O)c1cnc2ccccc2n1 [2-Acetylquinoxaline]
- redox activity ([1]; Electrolyte B): some redox activity
- separation of oxidation and reduction events ([1]; Electrolyte B): about 1 V

Structure (SMILES): FC(F)(F)c1cnc2ccccc2n1 [2-trifluoromethylquinoxaline]
- redox activity ([1]; Electrolyte B): no redox activity was observed

Structure (SMILES): Cc1cccc2nccnc12 [5-methylquinoxaline]
- performance compared with quinoxaline ([1]; Pt/Li/Li cell): lower activity

Structure (SMILES): Fc1c(F)c(F)c2c(c1F)OCCO2 [Compound 5]
- redox properties from cyclic voltammogram ([1]; Pt/Li/Li cell): redox properties suitable for use as redox reactants for the positive electrolyte

Structure (SMILES): Cc1ccc2nc(C)c(C)nc2c1 [2,3,6-trimethylquinoxaline]
- redox properties from cyclic voltammogram [3]: suitable reversible redox properties

Structure (SMILES): [Cl-].[Cl-].c1ccc(C[n+]2ccc(-c3cc[n+](Cc4ccccc4)cc3)cc2)cc1 [bis-benzyl-4,4′-bipyridinium dichloride]
- redox properties from cyclic voltammogram ([1]; Pt/Li/Li cell): suitable redox properties

Structure (SMILES): Fc1c(F)c(F)c2c(c1F)OB(c1cc(C(F)(F)F)ccc1C(F)(F)F)O2 [Compound 7]
- redox properties from cyclic voltammogram ([1]; Pt/Li/Li cell): redox properties suitable for use as redox reactants for the positive electrolyte

Structure (SMILES): Fc1c(F)c(F)c(B2Oc3c(F)c(F)c(F)c(F)c3O2)c(F)c1F [Compound 8]
- redox properties from cyclic voltammogram ([1]; Pt/Li/Li cell): redox properties suitable for use as redox reactants for the positive electrolyte

Structure (SMILES): Oc1nc2ccccc2nc1O [2,3-Dihydroxyquinoxaline]
- solubility in electrolyte solution ([4]; Electrolyte B): not soluble

Structure (SMILES): COCCOc1c(F)c(F)c(OCCOC)c(F)c1F [TFBMEB, 1,2,4,5-tetrafluoro-3,6-bis(2-methoxyethoxy)benzene]
- Potential [1]: 4.70 V vs. Li/Li
- Energy Density [2]: 422.5 Wh/Kg
- Intrinsic Capacity [2]: 89.9 mAh/g

Structure (SMILES): Cc1ccc2nccnc2c1 [6-methylquinoxaline]
- performance compared with quinoxaline ([1]; Pt/Li/Li cell): slightly better performance than quinoxaline

Structure (SMILES): COCCOc1cc(C(C)(C)C)c(OCCOC)cc1C(C)(C)C [DBBB, 2,5-Di-tert-butyl-1,4-bis(2-methoxyethoxy)benzene]
- diffusion coefficient ([5]; Electrolyte A): about 1.30×10^−6 cm^2/s
- diffusion coefficient ([5]; Electrolyte B): about 1.53×10^−6 cm^2/s
- redox potential, average of anodic and cathodic potentials [(Epa+Epc)/2] ([1]; 0.005 M in Electrolyte A (1.2 M LiPF6 in EC/EMC 3/7 by volume), room temperature): about 3.927 V vs. Li/Li^+
- redox potential ([1]; 0.005 M in Electrolyte B (0.2 M LiBF4 in propylene carbonate), room temperature): 4.022 V vs. Li/Li^+
- redox properties from cyclic voltammogram [3]: suitable reversible redox properties
- potential at which active in overcharge protection [6]: about 4.0 V vs. Li/Li^+

Structure (SMILES): CN1c2ccccc2N(C)c2ccccc21 [5,10-dihydro-5,10-dimethylphenazine]
- redox properties from cyclic voltammogram ([1]; Pt/Li/Li cell): suitable redox properties

Structure (SMILES): COc1c(F)c(F)c(OC)c(F)c1F [TFDMB, 1,2,4,5-tetrafluoro-3,6-dimethoxybenzene]
- Potential [1]: 4.70 V vs. Li/Li
- Energy Density [2]: 599.7 Wh/Kg
- Intrinsic Capacity [2]: 127.6 mAh/g

Structure (SMILES): Fc1ccc(B2Oc3c(F)c(F)c(F)c(F)c3O2)c(F)c1 [Compound 6]
- redox properties from cyclic voltammogram ([1]; Pt/Li/Li cell): redox properties suitable for use as redox reactants for the positive electrolyte

Structure (SMILES): c1ccc2nccnc2c1 [Quinoxaline]
- solubility ([4]; organic solvent or mixture, in propylene carbonate): ≥ 2000 mM

Structure (SMILES): BrCc1nc2ccccc2nc1CBr [2,3-bis(bromomethyl)quinoxaline]
- redox activity ([1]; Electrolyte B): no redox activity was observed

Source: US10424806B2, “Organic non-aqueous cation-based redox flow batteries” (UCHICAGO ARGONNE, LLC, priority 2012, dated 2019)
